Entries after “also recorded” stand apart in the source; their conditions may differ. Read-outs that look alike come from different tables or passages of the source.
Assays:
[1] = tested on: homovanillinic acid (turnover of dopamine in the basal ganglions); test: Determination of Homovanillinic Acid; assay type: in vivo, rat; settings: rats; for Increase in HVA, percent: 2 hours before killing, untreated = 100 percent
Experimental: Two hours prior to being killed, rats are injected with the test substance.
Thereafter, the homovanillinic acid is extracted from the supernatant portion of a homogenized mixture of the brains of the treated rats into butyl acetate and later into an aqueous solution and is oxidized with potassium ferric cyanide to a fluorescent dimer. […] The homovanillinic acid titer in untreated rats is arbitrarily set at 100 percent.

rats [2] = test: "Pole Climbing" Test; assay type: in vivo, rat; settings: for ED50: Rattus norvegicus, po, read-out: ED50 (blocking of the conditioned reaction); for neuroleptic action in words / quality (selectivity) of the neuroleptic action in words: compared with chlorpromazine
Experimental: (§1) This test provides information about behavioral reactions of rats. Rats are trained to avoid, by climbing up a vertical pole in the test chamber, an electrical impulse (unconditioned impulse) released via the wire-latticed floor some seconds after an acoustic signal (conditioned impulse).
(§2) The blocking of the conditioned reaction is determined by the parameter ED50 (mg/kg p.o.); the blocking of the unconditioned reaction is determined by a parameter ED10 (mg/kg. p.o.).
(§3) The parameter ED50 (blocking of the conditioned reaction) gives a measure of the neuroleptic strength of action of the test substance. The quotient ED10 (blocking of the unconditioned reaction)/ED50 (blocking of the conditioned reaction) gives a measure of the quality of action of the test substance since, with increasing quotient, a greater selectivity of the neuroleptic action (slighter neurotoxic side-effect) is present.

"Pole Climbing" Test = assay type: in vivo, rat; settings: rat, in vivo, po; rats, p.o.; higher quotient = greater selectivity of neuroleptic action; read-out: Quotient ED10 (blocking of the unconditioned reaction) / ED50 (blocking of the conditioned reaction)
Experimental: as §1, §2, §3

rats [3] = test: Catalepsy test (i.p., rats; number of cataleptic animals recorded every 30 minutes over 6 hours); assay type: in vivo, rat
Experimental: (§4) The following compounds were tested:
(§5) The foregoing compounds were compared to chlorpromazine, a well-known central depressant, especially well known as a neuroleptic agent.
(§6) The test animals are considered to be cataleptic when the homolateral extremities remain in the crossed position for at least 10 seconds. The number of cataleptic animals is recorded every 30 minutes over a 6-hour period. The ED50 is the dose at which 50 percent of the animals are cataleptic.

[4] = as above; assay type: in vivo, rat; settings: rat, in vivo, ip
Experimental: as §4, §5, §6

[5] = Acute toxicity in the mouse; settings: in vivo, po
mice = test: Rotating Rod Test; assay type: in vivo, mouse; settings: for ED50: Mus musculus, po, read-out: ED50 (dose which reduces the holding on period by 50 percent); for Rotating Rod Test activity in words: compared with chlorpromazine
Experimental: In the Rotating Rod Test, the ability of mice to achieve a coordinated motor performance is investigated. After peroral administration of the test substance, the mice are placed upon a horizontal slowly rotating rod and the time they remain on the rod is recorded. The ED50 is that dose which reduces the holding on period of the mice by 50 percent as compared to the holding on period prior to the administration of the test substance.

[6] = rats, intraperitoneal, 6-hour period, read-out: ED50 (dose at which 50 percent of the animals are cataleptic)

Row | SMILES | Increase in HVA, percent ([1]; 50 mg/kg p.o.) [%] | ED50 (rats [2]; rats, p.o.) [mg/kg] | neuroleptic action in words (rats [2]; rats) | quality (selectivity) of the neuroleptic action in words (rats [2]; rats) | selectivity ratio ("Pole Climbing" Test) | cataleptic activity in words (rats [3]; as compared to chlorpromazine) | TD50 at 6 h [4] [mg/kg] | LD50 at 24 h [5] [mg/kg] | ED50 (mice; mice, peroral) [mg/kg] | Rotating Rod Test activity in words (mice; mice, peroral) | ED50 (rats [2]) [mg/kg] | TD50 at 6 h [4, 6] [mg/kg] | Increase in HVA, percent ([1]; 20 mg/kg p.o.) [%] | cataleptic activity in words (rats [3]; rat, in vivo) | ED50 (mice) [mg/kg] | HVA test activity in words [1] | Rotating Rod Test activity in words (mice; mice, peroral, maleate) | Increase in HVA, percent ([1]; 45 mg/kg p.o.) [%]
1 | Cc1ccc2c(c1)CC(N1CCN(CCN3CCOC3=O)CC1)c1cc(F)ccc1S2 (stereo not drawn) [Product C, 3-{2-[4-(8-fluoro-10,11-dihydro-2-methyl-dibenzo[b,f]thiepin-10-yl)-1-piperazinyl]-ethyl}-2-oxazolidinone] | 235 | 14 | lies somewhat below that of chlorpromazine | substantially exceeds that of chlorpromazine | 23 | very weak cataleptic activity | 75 | 1880 | 2.1 | strong activity; also recorded: superior to that of chlorpromazine |  |  |  |  |  |  |  | 
2 | CSc1ccc2c(c1)C(N1CCN(CCN3CCOC3=O)CC1)Cc1cc(C)ccc1S2.O=C(O)/C=C\C(=O)O (stereo not drawn) [Product E, 3-{2-[4-(10,11-dihydro-2-methyl-8-methylthiodibenzo[b,f]thiepin-10-yl)-1-piperazinyl]-ethyl}-2-oxazolidinone maleate] | 255 |  | lies somewhat below that of chlorpromazine | substantially exceeds that of chlorpromazine | 12 | considerably lower cataleptic activity |  | 3750 |  |  | 25 | 45 |  |  |  |  |  | 
3 | CN(C)CCCN1c2ccccc2Sc2ccc(Cl)cc21 [Chlorpromazine, reference compound] |  | 11.8 |  |  | 2.5 |  |  | 200 |  |  |  | 6 | 321 | does demonstrate cataleptic effect | 5 |  |  | 
4 | Cc1ccc2c(c1)CC(N1CCN(CCN3CCCC3=O)CC1)c1cc(Cl)ccc1S2.O=C(O)/C=C\C(=O)O (stereo not drawn) [Product A, 1-{2-[4-(8-chloro-10,11-dihydro-2-methyl-dibenzo[b,f]thiepin-10-yl)-1-piperazinyl]-ethyl}-2-pyrrolidinone maleate] | 295 |  |  |  |  | no cataleptic effect |  | 3750 | 7.3 |  |  | > 100 |  |  |  | nearly as potent as that of chlorpromazine | strong activity; also recorded: approximates that of chlorpromazine | 
5 | O=C(O)/C=C\C(=O)O.O=C1OCCN1CCN1CCN(C2Cc3cc(Cl)ccc3Sc3ccc(F)cc32)CC1 (stereo not drawn) [Product D, 3-{2-[4-(2-chloro-8-fluoro-10,11-dihydrodibenzo[b,f]thiepin-10-yl)-1-piperazinyl]-ethyl}-2-oxazolidinone maleate] |  |  | lies somewhat below that of chlorpromazine | substantially exceeds that of chlorpromazine | 7.6 | considerably lower cataleptic activity |  | 450 | 1 |  | 17 | 45 |  |  |  | nearly as potent as that of chlorpromazine | strong activity; also recorded: superior to that of chlorpromazine | 300
6 | O=C(O)/C=C\C(=O)O.O=C1OCCN1CCN1CCN(C2Cc3cc(Cl)ccc3Sc3cc(F)ccc32)CC1 (stereo not drawn) [Product B, 3-{2-[4-(2-chloro-7-fluoro-10,11-dihydrodibenzo[b,f]thiepin-10-yl)-1-piperazinyl]-ethyl}-2-oxazolidinone maleate] | 270 |  |  |  |  | no cataleptic effect |  | 900 |  |  |  | > 100 |  |  |  | nearly as potent as that of chlorpromazine |  | 

— patent publication US3954764A, “Dibenzo [b,f]thiepins bearing piperazinyl substitution” (priority 1973, dated 1976)
